Measured values as given in patent US20240408042A1, “ORALLY DISINTEGRATING BACLOFEN COMPOSITIONS AND METHODS OF MAKING SAME” (Clinical Research Associates LLC, priority 2023, published 2024).

Legend:
[1] = animal models; cited from earlier work
[2] = compared with S-baclofen; cited from earlier work
[3] = Excipient solubility in HPLC method diluent; type: physicochemical; settings: approximately 1 to 2 mg/mL

Row | Compound | Completely Soluble in 85% 50 mM Potassium Phosphate, pH 3.0, 15% ACN [3] | also measured
1 | NCC(CC(=O)O)c1ccc(Cl)cc1 (racemic) [Baclofen, (±)-4-Amino-3-(4-chlorophenyl) butanoic acid] |  | absorption following administration into the colon [1]: poorly absorbed
2 | NC[C@H](CC(=O)O)c1ccc(Cl)cc1 (single isomer, unassigned) [R-baclofen] |  | potency in reducing obsessive-compulsive and repetitive behavior and audiogenic seizures [2]: more potent than S-baclofen
3 | OC[C@@H](O)[C@@H](O)[C@H](O)[C@H](O)CO [Pearlitol 300DC, Mannitol] | Yes | 

Second part, led by results:

Row | Completely Soluble in 85% 50 mM Potassium Phosphate, pH 3.0, 15% ACN [3] | Compound | also measured
4 | No | CCCCCCCCCCCCCCCCCCOC(=O)/C=C/C(=O)[O-].[Na+] [Pruv, Sodium Stearyl Fumarate] | 
5 | Yes | OC[C@H]1O[C@H](O[C@]2(CCl)O[C@H](CCl)[C@@H](O)[C@@H]2O)[C@H](O)[C@@H](O)[C@H]1Cl [Sucralose] | 
